Here are results for nine compounds from ChEMBL document CHEMBL3351230, “Synthesis of 2-anilinopyridine dimers as microtubule targeting and apoptosis inducing agents” (Bioorg Med Chem, 2014).

Structures are written as SMILES. Some results are limits rather than exact numbers.

One experiment has as its system A549. Put plainly: Antiproliferative activity against human A549 cells assessed as growth inhibition after 48 hrs by SRB assay. As to conditions: A549, 48 h.
Another experiment deals with MCF7. As to the kind of experiment: Antiproliferative activity against human MCF7 cells assessed as growth inhibition after 48 hrs by SRB assay. As to conditions: MCF7, 48 h. For orientation: The SRB assay estimates cell density from bound dye.
A further experiment has as its system DU-145. Put plainly: Antiproliferative activity against human DU145 cells assessed as growth inhibition after 48 hrs by SRB assay. As to conditions: DU-145, 48 h.

As usually defined, the GI50 is the concentration at which growth is held to half of that of the control. In the case of `O=C(Nc1cccnc1Nc1ccc(F)cc1)c1cccnc1Nc1ccc(F)cc1`, the 50% growth inhibitory concentration (GI50) in the experiment on A549 stood at 15.2 µM; with MCF7, 16 µM; in the experiment on DU-145, 8.4 µM.

`COc1ccc(Nc2ncccc2NC(=O)c2cccnc2Nc2ccc(F)cc2)cc1`: the concentration for 50% growth inhibition (GI50) in the experiment on A549 was 4.1 µM; in the experiment with MCF7, greater than 100 µM; in the experiment with DU-145, 6.6 µM.

Consider `COc1ccc(Nc2ncccc2NC(=O)c2cccnc2Nc2cc(OC)c(OC)c(OC)c2)cc1`, for which the GI50 in the experiment with A549, in the experiment on MCF7 and with DU-145 was greater than 100 µM in each case.

For `COc1ccc(Nc2ncccc2C(=O)Nc2cccnc2Nc2ccc(F)cc2)cc1`, the GI50 in the experiment on A549 was 18.5 µM; in the experiment with MCF7 it was 17.3 µM; in the experiment on DU-145, greater than 100 µM.

For the compound `O=C(Nc1cccnc1Nc1ccccc1)c1cccnc1Nc1cc(C(F)(F)F)cc(C(F)(F)F)c1`, the results for the GI50 in the experiment with A549, in the experiment on MCF7 and in the experiment on DU-145 were 3.2 µM, 5.4 µM and 4.8 µM, respectively.

For the compound `COc1ccc(Nc2ncccc2NC(=O)c2cccnc2Nc2ccc(OC)cc2)cc1`, the GI50 in the experiment on A549 was greater than 100 µM; in the experiment with MCF7 it was greater than 100 µM; in the experiment on DU-145, 21.2 µM.

In the case of `O=C(Nc1cccnc1Nc1ccc(Cl)cc1)c1cccnc1Nc1cc(C(F)(F)F)cc(C(F)(F)F)c1`, the GI50 turned out to be 3.9 µM in the experiment on A549, 10.5 µM in the experiment on MCF7 and 3.1 µM with DU-145.

In the case of `COc1cc(Nc2ncccc2C(=O)Nc2cccnc2Nc2ccc(Cl)cc2)cc(OC)c1OC`, the GI50 is greater than 100 µM in the experiment with A549, greater than 100 µM in the experiment on MCF7 and 10.5 µM in the experiment on DU-145.

As for `COc1ccc(Nc2ncccc2C(=O)Nc2cccnc2Nc2ccc(Cl)cc2)cc1`, the results for the GI50 in the experiment on A549, with MCF7 and in the experiment with DU-145 were greater than 100 µM, 28.8 µM and 16.6 µM, respectively.
